In patent US7521444B2, “Compounds for the treatment of hepatitis C” (Bristol-Myers Squibb Company, priority 2007, dated 2009):

Columns and labels:
HCV replicon cells = test: HCV replicon FRET / luciferase assay; assay type: cell-based; conditions: 50% reduction in FRET or luciferase activity
Method: FRET Assay Preparation. The HCV FRET screening assay was performed in 96-well cell culture plates. The FRET peptide (Anaspec, Inc.) (Taliani et al., Anal. Biochem. 1996, 240, 60-67) contains a fluorescence donor, EDANS, near one end of the peptide and an acceptor, DABCYL, near the other end. The fluorescence of the peptide is quenched by […] resonance energy transfer (RET) between the donor and the acceptor, but as the NS3 protease cleaves the peptide the products are released from RET quenching and the fluorescence of the donor becomes apparent. The assay reagent was made as follows: 5× cell Luciferase cell culture lysis reagent from Promega (#E153A) diluted to 1× with dH2O, NaCl added to 150 mM final, the FRET peptide diluted to 20 μM final from a 2 mM stock.
To prepare plates, HCV replicon cells, with or without a Renilla luciferase reporter gene, were trypsinized and plated in a 96-well plate with titrated test compounds added in columns 3 through 12; columns 1 and 2 contained a control compound (HCV control inhibitor), and the bottom row contained cells with DMSO only. The plates were then placed in a CO2 incubator at 37° C.
Assays. Subsequent to addition of the test compounds described above (FRET Assay Preparation), at various times the plate was removed and Alamar blue solution (Trek Diagnostics, #00-100) was added to measure cellular toxicity. After reading in a Cytoflour 4000 instrument (PE Biosystems), plates were rinsed with PBS and then used for FRET assay by the addition of 30 ul of the FRET peptide assay reagent described above (FRET Assay Preparation) per well. The plate was then placed into the Cytoflour 4000 instrument which had been set to 340 excite/490 emission, automatic mode for up to 20 cycles and the plate read in a kinetic mode. Typically, the signal to noise using an endpoint analysis after the reads was at least three-fold. Alternatively, after Alamar blue reading, plates were rinsed with PBS, then used for luciferase assay using the Promega Dual-Glo Luciferase Assay System or the Promega EnduRen Live Cell Substrate assay.
Compound analysis was performed by quantification of the relative HCV replicon inhibition and the relative cytotoxicity values. To calculate cytoxicity values, the average Alamar Blue fluorescence signals from the control wells were set as 100% non-toxic. The individual signals in each of the compound test wells were then divided by the average control signal and multiplied by 100% to determine […]. To calculate the HCV replicon inhibition values, an average background value was obtained from the two wells containing the highest amount of HCV control inhibitor at the end of the assay period. These numbers were similar to those obtained from naïve Huh-7 cells. The background numbers were then subtracted from the average signal obtained from the control wells and this number was used as 100% activity. The individual signals in each of the compound test wells were then divided by the averaged control values after background subtraction and multiplied by 100% to determine percent activity. EC50 values were calculated as the concentration which caused a 50% reduction in FRET or luciferase activity. The two numbers generated for the compound plate, percent cytoxicity and percent activity, were used to determine compounds of interest for further analysis.

HCV NS5B = target: T1, HCV NS5B (Hepatitis C virus genotype 1b, UniProt Q9WMX2); test: HCV NS5B RdRp enzyme assay (standard or modified); assay type: biochemical; conditions: HCV NS5B RdRp genotype 1b enzyme; standard or modified assay not stated
T1 construct: The protein was expressed with an 18 amino acid C-terminal truncation to enhance the solubility; made in house; host or cells: E. coli BL21(DE3), pET21a
Method: HCV NS5B RdRp cloning, expression, and purification. The cDNA encoding the NS5B protein of HCV, genotype 1b, was cloned into the pET21a expression vector. The protein was expressed with an 18 amino acid C-terminal truncation to enhance the solubility. The E. coli competent cell line BL21(DE3) was used for expression of the protein. Cultures were grown at 37° C. for ˜4 hours until the cultures reached an optical density of 2.0 at 600 nm. The cultures were cooled to 20° C. and induced with 1 mM IPTG. Fresh ampicillin was added to a final concentration of 50 μg/ml and the cells were grown overnight at 20° C.
Cell pellets (3 L) were lysed for purification to yield 15-24 mgs of purified NS5B. The lysis buffer consisted of 20 mM Tris-HCl, pH 7.4, 500 mM NaCl, 0.5% triton X-100, 1 mM DTT, 1 mM EDTA, 20% glycerol, 0.5 mg/ml lysozyme, 10 mM MgCl2, 15 ug/ml deoxyribonuclease I, and Complete TM protease inhibitor tablets (Roche). After addition of the lysis buffer, frozen cell pellets were resuspended using a tissue homogenizer. To reduce the viscosity of the sample, aliquots of the lysate were sonicated on ice using a microtip attached to a Branson sonicator. The sonicated lysate was centrifuged at 100,000×g for 1 hr at 4° C. and filtered through a 0.2 μm filter unit (Corning).
The protein was purified using two sequential chromatography steps: Heparin sepharose CL-6B and polyU sepharose 4B (Pharmacia). The chromatography buffers were identical to the lysis buffer but contained no lysozyme, deoxyribonuclease I, MgCl2 or protease inhibitor and the NaCl concentration of the buffer was adjusted according to the requirements for charging the protein onto the column. Each column was eluted with a NaCl gradient which varied in length from 5-50 column volumes depending on the column type. After the final chromatography step, the resulting purity of the enzyme is >90% based on SDS-PAGE analysis. The enzyme was aliquoted and stored at −80° C.
Standard HCV NS5B RdRp enzyme assay. HCV RdRp genotype 1b assays were run in a final volume of 60 μl in 96 well plates (Corning 3600). The assay buffer is composed of 20 mM Hepes, pH 7.5, 2.5 mM KCl, 2.5 mM MgCl2, 1 mM DTT, 1.6 U RNAse inhibitor (Promega N2515), 0.01 mg/ml BSA (Sigma B6917), and 2% glycerol. All compounds were serially diluted (3-fold) in DMSO and diluted further in water such that the final concentration of DMSO in the assay was 2%. HCV RdRp genotype 1b enzyme was used at a final concentration of 28 nM. A polyA template was used at 6 nM, and a biotinylated oligo-dT12 primer was used at 180 nM final concentration. Template was obtained commercially (Amersham 27-4110). Biotinylated primer was prepared by Sigma Genosys. 3H-UTP was used at 0.6 μCi (0.29 μM total UTP). Reactions were initiated by the addition of enzyme, incubated at 30° C. for 60 min, and stopped by adding 25 μl of 50 mM EDTA containing SPA beads (4 μg/μl, Amersham RPNQ 0007). Plates were read on a Packard Top Count NXT after >1 hr incubation at room temperature.
Modified HCV NS5B RdRp enzyme assay. A modified enzyme assay was performed essentially as described for the standard enzyme assay except for the following: The biotinylated oligo dT12 primer was precaptured on streptavidin-coated SPA beads by mixing primer and beads in assay buffer and incubating at room temperature for one hour. Unbound primer was removed after centrifugation. The primer-bound beads were resuspended in 20 mM Hepes buffer, pH 7.5 and used in the assay at final concentrations of 20 nM primer and 0.67 μg/μl beads. Order of addition in the assay: enzyme (1.75 nM) was added to diluted compound followed by the addition of a mixture of template (0.36 nM), 3H-UTP (0.6 μCi, 0.29 μM), and primer-bound beads, to initiate the reaction; concentrations given are final. Reactions were allowed to proceed for 4 hours at 30° C.
IC50 values for compounds were determined using seven different [I]. […]

T1 sequence (Q9WMX2 2420-2992): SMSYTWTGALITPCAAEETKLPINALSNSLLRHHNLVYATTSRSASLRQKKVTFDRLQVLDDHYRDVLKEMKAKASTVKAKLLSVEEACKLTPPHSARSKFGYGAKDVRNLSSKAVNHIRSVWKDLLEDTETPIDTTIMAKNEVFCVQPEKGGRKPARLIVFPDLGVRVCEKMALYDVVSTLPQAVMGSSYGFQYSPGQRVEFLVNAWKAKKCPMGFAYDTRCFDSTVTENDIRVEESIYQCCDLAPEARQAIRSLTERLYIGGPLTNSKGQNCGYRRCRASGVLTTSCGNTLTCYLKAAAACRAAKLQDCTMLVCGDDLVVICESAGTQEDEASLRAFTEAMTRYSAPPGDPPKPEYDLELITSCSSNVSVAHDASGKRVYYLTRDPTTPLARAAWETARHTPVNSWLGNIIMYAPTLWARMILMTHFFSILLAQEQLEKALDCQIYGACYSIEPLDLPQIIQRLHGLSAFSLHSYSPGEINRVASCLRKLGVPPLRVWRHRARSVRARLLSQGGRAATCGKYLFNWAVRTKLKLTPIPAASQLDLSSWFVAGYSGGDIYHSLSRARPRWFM

Compound	EC50 (HCV replicon cells; Hepatitis C virus) [nM]	IC50 (HCV NS5B) [nM]	EC50 (HCV replicon cells) [nM]
COc1ccc2c(c1)C1CC1(C(=O)N1CCN3CCC[C@H]3C1)Cn1c-2c(C2CCCCC2)c2ccc(C(=O)NS(=O)(=O)C3CC3)cc21 (stereo partly drawn)	4.58 to 500	4.58 to 500	
COc1ccc2c(c1)[C@@H]1C[C@]1(C(=O)N1CCN3CCC[C@H]3C1)Cn1c-2c(C2CCCCC2)c2ccc(C(=O)NS(=O)(=O)N(C)C)cc21	4.58 to 500	4.58 to 500	
COc1ccc2c(c1)C1CC1(C(=O)N1CC3CNCC3C1)Cn1c-2c(C2CCCCC2)c2ccc(C(=O)NS(N)(=O)=O)cc21 (stereo not drawn)	> 500	4.58 to 500	
COc1ccc2c(c1)C1CC1(C(=O)N1CC3CN(C(=O)C4CC4)CC3C1)Cn1c-2c(C2CCCCC2)c2ccc(C(=O)NS(N)(=O)=O)cc21 (stereo not drawn)		4.58 to 500	
COc1ccc2c(c1)[C@@H]1C[C@]1(C(=O)N1CC3CCCN(C(C)=O)C3C1)Cn1c-2c(C2CCCCC2)c2ccc(C(=O)NS(=O)(=O)N(C)C)cc21 (stereo partly drawn) [drawing 73]		4.58 to 500	4.58 to 500
COc1ccc2c(c1)C1CC1(C(=O)N1CC3CN(Cc4ccccc4)CC3C1)Cn1c-2c(C2CCCCC2)c2ccc(C(=O)NS(N)(=O)=O)cc21 (stereo not drawn)	4.58 to 500	4.58 to 500	
COc1ccc2c(c1)C1CC1(C(=O)N1CC3CCCNC3C1)Cn1c-2c(C2CCCCC2)c2ccc(C(=O)NS(=O)(=O)N(C)C)cc21 (stereo not drawn)	4.58 to 500	4.58 to 500	
COc1ccc2c(c1)C1CC1(C(=O)N1CCC[C@H]3CNC[C@H]31)Cn1c-2c(C2CCCCC2)c2ccc(C(=O)NS(=O)(=O)N(C)C)cc21 (stereo partly drawn)	4.58 to 500	4.58 to 500	
COc1ccc2c(c1)C1CC1(C(=O)N1CC3CN(C(=O)OC(C)(C)C)CC3C1)Cn1c-2c(C2CCCCC2)c2ccc(C(=O)NS(=O)(=O)C3CC3)cc21 (stereo not drawn)		4.58 to 500	
COc1ccc2c(c1)C1CC1(C(=O)N1CCN3CCC[C@H]3C1)Cn1c-2c(C2CCCCC2)c2ccc(C(=O)NS(=O)(=O)N3CCC3)cc21 (stereo partly drawn)	4.58 to 500	4.58 to 500	
COc1ccc2c(c1)C1CC1(C(=O)N1CCC[C@H]3CN(Cc4ccccc4)C[C@H]31)Cn1c-2c(C2CCCCC2)c2ccc(C(=O)NS(=O)(=O)C3CC3)cc21 (stereo partly drawn)	4.58 to 500	4.58 to 500	
COc1ccc2c(c1)C1CC1(C(=O)N1CCN3CCC[C@@H]3C1)Cn1c-2c(C2CCCCC2)c2ccc(C(=O)NS(C)(=O)=O)cc21 (stereo partly drawn)	4.58 to 500	4.58 to 500	
COc1ccc2c(c1)C1CC1(C(=O)N1CCN3CCCCC3C1)Cn1c-2c(C2CCCCC2)c2ccc(C(=O)NS(C)(=O)=O)cc21 (stereo not drawn)	4.58 to 500	4.58 to 500	
COc1ccc2c(c1)C1CC1(C(=O)N1CCC[C@H]3CN(C)C[C@H]31)Cn1c-2c(C2CCCCC2)c2ccc(C(=O)NS(=O)(=O)N(C)C)cc21 (stereo partly drawn)	4.58 to 500	4.58 to 500	
COc1ccc2c(c1)C1CC1(C(=O)N1CC3CN(C(=O)N(C)C)CC3C1)Cn1c-2c(C2CCCCC2)c2ccc(C(=O)NS(N)(=O)=O)cc21 (stereo not drawn)		4.58 to 500	
COc1ccc2c(c1)C1CC1(C(=O)N1CCN3CCCC3C1)Cn1c-2c(C2CCCCC2)c2ccc(C(=O)NS(=O)(=O)N(C)C)cc21 (stereo not drawn)	4.58 to 500	4.58 to 500	
COc1ccc2c(c1)[C@@H]1C[C@]1(C(=O)N1CCN3CCC[C@@H]3C1)Cn1c-2c(C2CCCCC2)c2ccc(C(=O)NS(=O)(=O)N(C)C)cc21	4.58 to 500	4.58 to 500	
COc1ccc2c(c1)C1CC1(C(=O)N1CCN3CCC[C@H]3C1)Cn1c-2c(C2CCCCC2)c2ccc(C(=O)NS(=O)(=O)N3CCOCC3)cc21 (stereo partly drawn)	4.58 to 500	4.58 to 500	
COc1ccc2c(c1)C1CC1(C(=O)N1CCN3CCCCC3C1)Cn1c-2c(C2CCCCC2)c2ccc(C(=O)NS(=O)(=O)N(C)C)cc21 (stereo not drawn)	4.58 to 500	4.58 to 500	
COc1ccc2c(c1)C1CC1(C(=O)N1C[C@H]3CNC[C@H]3C1)Cn1c-2c(C2CCCCC2)c2ccc(C(=O)NS(=O)(=O)N(C)C)cc21 (stereo partly drawn)	4.58 to 500	4.58 to 500	
COc1ccc2c(c1)C1CC1(C(=O)N1CCCC3CN(Cc4ccccc4)CC31)Cn1c-2c(C2CCCCC2)c2ccc(C(=O)NS(=O)(=O)N(C)C)cc21 (stereo not drawn)	4.58 to 500	4.58 to 500	
COc1ccc2c(c1)C1CC1(C(=O)N1CC3CN(C(=O)OC(C)(C)C)CC3C1)Cn1c-2c(C2CCCCC2)c2ccc(C(=O)NS(=O)(=O)N(C)C)cc21 (stereo not drawn)	4.58 to 500	4.58 to 500	
COc1ccc2c(c1)C1CC1(C(=O)N1CC3CCCN(C(C)=O)C3C1)Cn1c-2c(C2CCCCC2)c2ccc(C(=O)NS(=O)(=O)C3CC3)cc21 (stereo not drawn) [drawing 68]		4.58 to 500	4.58 to 500
COc1ccc2c(c1)C1CC1(C(=O)N1CC3CN(C(C)=O)CC3C1)Cn1c-2c(C2CCCCC2)c2ccc(C(=O)NS(=O)(=O)C3CC3)cc21 (stereo not drawn)	4.58 to 500	4.58 to 500	
